Here are results for one compound from patent publication US20030180345A1, “Compositions and methods for inhibiting islet dysfunction and autoimmune disorders” (priority 2000, published 2003).

For one assay, the system named is fetal islet β cells. As to the kind of experiment: Global cell death / mortality of cultured fetal islets (ethidium bromide permeability). In kind it is cell-based. Conditions: SNP (100 μmol/l); pre-treated with taurine 0.3 or 3 mmol/l; both diet groups; dose dependent. Here is the method: Global cell death. Global cell death was analysed using a non-specific staining permeant probe. For this purpose, the culture medium was removed and the dishes were incubated in the dark with 1 ml of 20 μg/ml ethidium bromide for 20 min to stain permeabilized dead cells. The cultures were then fixed with 4% paraformaldehyde in PBS for 10 min, treated with 30% methanol for permeabilization of the remaining of the cells and then mounted in mowiol containing 20 μg/ml of Hoechst 33342, to stain the nuclei.
Physiological and supraphysiological levels of each amino acid were tested. Taurine, if present was either 0.3 mmol/l (physiological) or 3 mmol/l (supraphysiological); methionine, if present was either 0.1 mmol/l (physiological) or 1 mmol/l (supraphysiological); and β-alanine, if present was either 0.3 mmol/l (physiological) or 3 mmol/l (supraphysiological). Supplemental amino acid levels were maintained in the culture medium during SNP treatment. […] Apoptosis was quantified by confocal microscopy using the TUNEL method described in Example 1. Mortality rate was quantified by confocal microscopy using permeant probes, as described in Example 1, to verify quantification of apoptotic rate for both C and LP diet treatments including SNP and taurine.

For assay [1] the following is noted: taurine 0.3 mmol/l or 3 mmol/l; acellular. Here is the method: Nitric oxide is a reactive free radical which leads to peroxynitrite formation, another reactive free radical, by interaction with superoxide (NO+OO^−→ONOO^−). […] Luminol-derived chemiluminescence induced by peroxynitrite produced by the decomposition of sydnonimine (SIN-1) was evaluated to investigate the possibility that taurine quenched the peroxynitrite formed from NO.

In the next assay the test system is Fas. The assay can be described thus: Islet Fas immunoreactivity with dietary taurine supplementation. It is filed as in vivo, Wistar rats. As to conditions: post-natal day 14. The procedure: (§1) Animals and diets were prepared as described in Example 8. The pancreas was removed, and the presence of Fas, Fas ligand, inducible nitric oxide synthase (iNOS) and vascular endothelial growth factor (VEGF) were evaluated in pancreatic sections using immunoreactivity.

The subject of a further assay is VEGF. The assay can be described thus: Pancreatic VEGF immunoreactivity with dietary taurine supplementation. It is filed as in vivo, Wistar rats. Conditions: decrease by low protein diet; regardless of developmental stage. Here is the method: as §1
For the next assay, the system named is NOD mice. The assay can be described thus: Insulitis in NOD mice at 12 weeks after taurine in maternal drinking water (pregnancy and lactation). It is filed as in vivo. As to conditions: for reduction of incidence of insulitis: 12 weeks of age, vs control animals. From the text: Pregnant NOD mice were maintained on a control diet either with or without taurine supplementation in the drinking water throughout pregnancy and lactation. Supplementation of taurine was stopped after weaning. At 12 weeks of age the animals were killed and examined for histological evidence of insulitis within the pancreatic islets. Mice which were examined and found to have evidence of insulitis, were then further scored as peri-islet (slight), less than 50% area of islet (medium) or more than 50% islet area (heavy), as indicative of the stage and/or severity of insulitis.

Turning to `NCCS(=O)(=O)O` [taurine, 2-aminoethylsulfonic acid], the “mortality after treatment with SNP, percentage of cell death” value in the assay with fetal islet β cells is given as “significantly diminished”. In addition, the “concentration of NO released in the presence of SNP” value in assay [1] is “not significantly altered”. Further, the “immunoreactive Fas within islets” value with Fas is recorded as “reduced”. For the same compound, in the assay with VEGF, the “VEGF immunoreactivity in the pancreas” value is on record as “reverses the effect”. In addition, in the assay with NOD mice (female animals exhibiting insulitis, C+Taurine (65% in control diet group)), the “proportion of individual islets showing no incidence of insulitis” value is given as “approximately 50%”. Moreover, the “severity of insulitis when it occurs” value with NOD mice (female mice exhibiting insulitis, 12 weeks) is listed as “not lessened”. Moreover, the “reduction of incidence of insulitis” value was 80% with NOD mice (female mice) and 60% with NOD mice (male mice).
